Test results as given in article PMC10820528, “New Rare Triterpene Glycosides from Pacific Sun Star, Solaster pacificus, and Their Anticancer Activity” (Marine Drugs, 2023).

Columns and labels:
[1] = tested on: breast cancer MDA-MB-231 cells; assay: cells; format: cell-based
Description: (§1) We calculated the inhibiting concentration that cause death of 50% of cells (IC50) and the selectivity index (SI) of the compounds tested (Table 4).
(§2) The human embryonic kidney HEK 293 cells (ATCC® CRL-1573™), breast cancer MDA-MB-231 cells (ATCC® HTB-26™), and colorectal carcinoma HCT 116 cells (ATCC® CCL-247™) were purchased from the American Type Culture Collection (Manassas, VA, USA). The HEK 293 and MDA-MB-231 cells were cultured in DMEM; the HCT 116 cells were cultured in the McCoy’s 5A medium at 37 °C in a humidified atmosphere containing 5% CO2. The culture media were supplemented with 10% heat-inactivated FBS and a 1% penicillin/streptomycin solution. The number of passages was carefully controlled, and contamination by Mycoplasma was monitored on a regular basis.
(§3) Compounds 1–3, and 6–8 were dissolved in sterile dimethyl sulfoxide (DMSO), to prepare stock concentrations of 20 mM. Cells were treated with serially diluted 1–3, 6–8 (0.3–100 µM) (with the culture medium used as diluent) (the final concentration of DMSO was less than 0.5%). The vehicle control was the cells treated with an equivalent volume of DMSO (the final concentration was less than 0.5%) for all of the presented experiments.
(§4) HEK 293 (1.0 × 10^4/200 µL), HCT 116 (1.0 × 10^4/200 µL), and MDA-MB-231 (0.8 × 10^4/200 µL) cells were seeded in a 96-well plate and incubated for 24 h at 37 °C in a CO2 incubator. […] The cells were subsequently incubated with 15 µL of the MTS reagent for 3 h. The absorbance of each well was measured at 490/630 nm on a Power Wave XS microplate reader (BioTek, Winooski, VT, USA).
(§5) The IC50 concentration was calculated using the AAT-Bioquest® online calculator [24]. The selectivity index (SI) was calculated as described previously, using the following formula: SI = IC50 of the compounds for normal cells (HEK 293) divided by IC50 of the same compounds for the human colorectal adenocarcinoma and breast cancer (HCT 116 and MDA-MB-231) cell lines.

[2] = tested on: human embryonic kidney HEK 293 cells; assay: cells; format: cell-based
Description: as §1, §2, §3, §4, §5

[3] = tested on: colorectal carcinoma HCT 116 cells; assay: cells; format: cell-based
Description: We determined the cytotoxicity of compounds 1–3 and 6–8 against human embryonic kidney HEK 293, colorectal carcinoma HCT 116, and breast cancer MDA-MB-231 cells by the MTS assay, after 24 h of treatment with the compounds. We calculated the inhibiting concentration that cause death of 50% of cells (IC50) and the selectivity index (SI) of the compounds tested (Table 4).
as §2, §3, §4, §5

[4] = tested on: human colorectal carcinoma HCT 116 cells; assay: Soft-agar clonogenic assay, HCT 116; format: cell-based; settings: 14 days
Description: (§6) The soft-agar clonogenic assay was applied in order to assess the effect of compound 2 on the colony formation of human colorectal carcinoma HCT 116 and breast cancer MDA-MB-231 cells. As a result, compound 2 at concentrations of 0.6, 1.25, 2.5, and 5 µM decreased the number of colonies of HCT 116 cells by 11, 24, 52, and 97%, respectively (Figure 6a,b) and MDA-MB-231 cells by 20, 39, 61, and 80%, respectively (Figure 6c,d).
(§7) HCT 116 and MDA-MB-231 cells (2.4 × 10^4/mL) were treated with compound 2 (0.6, 1.25, 2.5, and 5 µM). Then, the cells were placed onto 0.3% BME agar containing 10% FBS, 2 mM L-glutamine, and 25 µg/mL gentamicin. The cultures were maintained at 37 °C in a 5% CO2 incubator for 14 days. The number of colonies was counted under an AE 20 Motic microscope using the ImageJ v. 1.50i software, bundled with 64-bit Java 1.6.0_24 (NIH, Bethesda, MD, USA).

[5] = tested on: breast cancer MDA-MB-231 cells; assay: Soft-agar clonogenic assay, MDA-MB-231; format: cell-based, human; settings: 14 days
Description: as §6, §7

[6] = tested on: human colorectal carcinoma HCT 116 cells; assay: Scratch (wound-healing) assay, HCT 116; format: cell-based; settings: for suppression of migration of HCT 116 cells: 48 h, compared to control at 48 h; for reduction of migration of HCT 116 cells: 72 h of treatment, compared to control at 72 h
Text: (§8) Metastasis is the leading cause of cancer mortality. The metastatic cascade is a multistep process in which cancer cells are […], from the primary tumor to distant parts and tissues. Migration and plasticity of cancer cells, as well as the environment such as stromal and endothelial cells, are essential in metastasis. In this study, the migration ability (invasive potential) of colorectal carcinoma HCT 116 cells and breast cancer MDA-MB-231 cells and the anti-invasive effect of compound 2 were determined by the “wound-healing”, or scratch, method.
(§9) HCT 116 and MDA-MB-231 cells (3 × 10^5 cells/mL) were seeded in 6-well plates and grown to 80% confluence for 24 h. After removing the culture medium, the cells’ monolayer was scraped with a 200 µL sterile pipette tip, to create a straight scratch. Then, the cells were treated with compound 2 at concentrations of 0.6, 1.25, 2.5, and 5 µM and incubated for 24, 48, and 72 h. All experiments were set up in triplicate for each group. For image analysis, the cell migration into the wound area was photographed at the stages of 0, 24, 48, and 72 h through a Motic AE 20 microscope and using the ImageJ v. 1.50i software, bundled with 64-bit Java 1.6.0_24 (NIH, Bethesda, MD, USA). The cell migration distance was estimated by measuring the width of the wound, and was expressed as the percentage of each control (0 h) in relation to the mean of the wound-closure area.

[7] = tested on: breast cancer MDA-MB-231 cells; assay: Scratch (wound-healing) assay, MDA-MB-231; format: cell-based; settings: Homo sapiens, 24 h of treatment, compared to control at 24 h, read-out: inhibition of migration of MDA-MB-231 cells
Text: as §8
as §9, with “1.50i software, bundled with 64-bit Java 1.6.0_24 (NIH, Bethesda, MD, USA).” left out

SK-MEL-2 cancer cells = tested on: SK-MEL-2 cancer cells; parameters: method as in PMID 35323516; settings: non-toxic concentrations; cited from earlier work
JB6 Cl41 cells = tested on: JB6 Cl41 cells; parameters: method as in PMID 35323516; settings: induced by chemical carcinogens (EGF and TPA) or ionizing radiation (X-rays and UVB), non-toxic concentrations; cited from earlier work
[8] = tested on: AsPC-1 human pancreatic cancer cells; parameters: method as in PMID 18837899; settings: by induction of apoptosis; cited from earlier work
[9] = tested on: MDA-MB-231 human breast cancer cells; parameters: method as in PMID 21741966; settings: concentration- and time-dependent; cited from earlier work
metastatic breast cancer = tested on: metastatic breast cancer; parameters: method as in PMID 21761157; settings: syngeneic murine model of metastatic breast cancer; cited from earlier work

CO[C@@H]1[C@@H](O)[C@H](O[C@@H]2[C@@H](O)[C@H](O[C@H]3[C@H](O)[C@@H](O)[C@H](O[C@H]4[C@H](O[C@H]5CC[C@]6(C)C7=C(CC[C@H]6C5(C)C)[C@]5(C)C[C@H](OC(C)=O)[C@H]([C@@](C)(O)CCC=C(C)C)[C@@]5(CO)CC7)OC[C@@H](O)[C@@H]4O)O[C@@H]3C)O[C@H](CO)[C@H]2O)OC[C@H]1O [Compound 2, (20S)-3β-O-[3-O-methyl-β-D-xylopyranosyl-(1→3)-β-D-glucopyranosyl-(1→4)-β-D-quinovopyranosyl-(1→2)-β-D-xylopyranosyl]-16β-acetoxy,18,20-dihydroxy-5α-lanosta-8(9),24-diene]
cytotoxic activity in words, MDA-MB-231 [1]: Moderate | IC50 ([1]; Homo sapiens, MDA-MB-231, MTS assay, 24 h of cell incubation, mean ± SD, read-out: IC50, MDA-MB-231): 15.5 ± 1.6 µM | SI (selectivity index), MDA-MB-231 ([1]; mean IC50 against normal cells (HEK 293)/mean IC50 against MDA-MB-231, 24 h): 1.2 | cytotoxic activity in words, HEK 293 [2]: Moderate | IC50 ([2]; Homo sapiens, HEK293, MTS assay, 24 h of cell incubation, mean ± SD, read-out: IC50, HEK 293): 18.5 ± 2.5 µM | cytotoxic activity in words, HCT 116 [3]: Moderate | IC50 ([3]; Homo sapiens, HCT-116, MTS assay, 24 h of cell incubation, mean ± SD, read-out: IC50, HCT 116): 18.6 ± 1.4 µM | SI (selectivity index), HCT 116 ([3]; mean IC50 against normal cells (HEK 293)/mean IC50 against HCT 116, 24 h): 1 | decrease of the number of colonies, HCT 116 ([4]; 0.6 µM): 11% | decrease of the number of colonies, HCT 116 ([4]; 1.25 µM): 24% | decrease of the number of colonies, HCT 116 ([4]; 2.5 µM): 52% | decrease of the number of colonies, HCT 116 ([4]; 5 µM): 97% | decrease of the number of colonies, MDA-MB-231 ([5]; 0.6 µM): 20% | decrease of the number of colonies, MDA-MB-231 ([5]; 1.25 µM): 39% | decrease of the number of colonies, MDA-MB-231 ([5]; 2.5 µM): 61% | decrease of the number of colonies, MDA-MB-231 ([5]; 5 µM): 80% | suppression of migration of HCT 116 cells ([6]; 0.6 µM): 8% | reduction of migration of HCT 116 cells ([6]; 0.6 µM): 3% | suppression of migration of HCT 116 cells ([6]; 1.25 µM): 18% | reduction of migration of HCT 116 cells ([6]; 1.25 µM): 3% | suppression of migration of HCT 116 cells ([6]; 2.5 µM): 42% | reduction of migration of HCT 116 cells ([6]; 2.5 µM): 23% | suppression of migration of HCT 116 cells ([6]; 5 µM): 41% | reduction of migration of HCT 116 cells ([6]; 5 µM): 41% | inhibition at 0.6 µM ([6]; Homo sapiens, HCT-116, 0.6 µM, 24 h of treatment, compared to control 24 h, read-out: inhibition of migration of HCT 116 cells): 5% | inhibition at 1.25 µM ([6]; Homo sapiens, HCT-116, 1.25 µM, 24 h of treatment, compared to control 24 h, read-out: inhibition of migration of HCT 116 cells): 17% | inhibition at 2.5 µM ([6]; Homo sapiens, HCT-116, 2.5 µM, 24 h of treatment, compared to control 24 h, read-out: inhibition of migration of HCT 116 cells): 30% | inhibition at 5 µM ([6]; Homo sapiens, HCT-116, 5 µM, 24 h of treatment, compared to control 24 h, read-out: inhibition of migration of HCT 116 cells): 37% | inhibition at 5 µM [7]: 15%

COC1C(O)C(CO)OC(OC2C(O)C(CO)OC(OC3C(C)OC(OC4C(OC5CCC6(C)C7CCC89C(=O)OC(C)(C=CC=C(C)C)C8C(OC(C)=O)CC9(C)C7=CCC6C5(C)C)OCC(O)C4O)C(OC4OCC(O)C(O)C4O)C3O)C2O)C1O (stereo not drawn) [cucumarioside D]
colony formation of SK-MEL-2 cancer cells (SK-MEL-2 cancer cells): highest inhibiting effect | neoplastic transformation of JB6 Cl41 cells (JB6 Cl41 cells): significantly inhibit

CO[C@@H]1[C@@H](O)[C@H](O[C@@H]2[C@@H](O)[C@H](O[C@H]3[C@H](O)[C@@H](O[C@@H]4OC[C@@H](O)[C@H](O)[C@H]4O)[C@H](O[C@H]4[C@H](OC5CC[C@]6(C)[C@H]7CCC89C(=O)O[C@@](C)(CCCC(C)C)C8[C@@H](OC(C)=O)C[C@@]9(C)C7=CC[C@H]6C5(C)C)OC[C@@H](OS(=O)(=O)O)[C@@H]4O)O[C@@H]3C)OC[C@H]2O)O[C@H](CO)[C@H]1O (stereo partly drawn) [frondoside A]
proliferation of AsPC-1 cells [8]: inhibits proliferation | viability of MDA-MB-231 cells [9]: decreases the viability | antimetastatic effect (metastatic breast cancer): potent antimetastatic effect

CO[C@@H]1[C@@H](O)[C@H](O[C@@H]2[C@@H](O)[C@H](O[C@H]3[C@H](O)[C@@H](O[C@@H]4OC[C@@H](O)[C@H](O)[C@H]4O)[C@H](O[C@H]4[C@H](O[C@H]5CC[C@]6(C)[C@@H]7CCC89C(=O)O[C@@](C)(/C=C/C=C(C)C)[C@H]8[C@@H](OC(C)=O)C[C@@]9(C)C7=CC[C@H]6C5(C)C)OC[C@@H](O)[C@@H]4O)O[C@@H]3C)O[C@H](CO)[C@H]2O)O[C@H](CO)[C@H]1O (stereo partly drawn) [pacificusoside D]
colony formation of SK-MEL-2 cancer cells (SK-MEL-2 cancer cells): highest inhibiting effect | neoplastic transformation of JB6 Cl41 cells (JB6 Cl41 cells): significantly inhibit
